From ChEMBL document CHEMBL4507304, “Data for DCP probe TP-021” (2021)

Tests used:
[1] = molecular target: Ribosomal protein S6 kinase alpha-3 (Homo sapiens) (UniProt P51812); conditions: Compound concentration 1000.0 nM
[2] = molecular target: Muscarinic acetylcholine receptor M5 (Homo sapiens) (UniProt P08912); conditions: Compound concentration 10.0 uM
[3] = molecular target: Serine/threonine-protein kinase 10 (Homo sapiens) (UniProt O94804); conditions: Compound concentration 1000.0 nM
[4] = molecular target: Tyrosine-protein kinase Fgr (Homo sapiens) (UniProt P09769); conditions: Compound concentration 1000.0 nM
[5] = molecular target: RAC-alpha serine/threonine-protein kinase (Homo sapiens) (UniProt P31749); conditions: Compound concentration 1000.0 nM
[6] = molecular target: Tyrosine-protein kinase Yes (Homo sapiens) (UniProt P07947); conditions: Compound concentration 1000.0 nM
[7] = molecular target: Tyrosine-protein kinase ABL1 (Homo sapiens) (UniProt P00519); conditions: Compound concentration 1000.0 nM
[8] = test system: Mast/stem cell growth factor receptor Kit (Homo sapiens), P10721 [V559D,V654A]; conditions: Compound concentration 1000.0 nM
[9] = molecular target: Peripheral plasma membrane protein CASK (Homo sapiens) (UniProt O14936); conditions: Compound concentration 1000.0 nM
[10] = molecular target: 5-hydroxytryptamine receptor 2A (Homo sapiens) (UniProt P28223); conditions: Compound concentration 10.0 uM
[11] = test system: Fibroblast growth factor receptor 3 (Homo sapiens), P22607 [G697C]; conditions: Compound concentration 1000.0 nM
[12] = molecular target: 5-hydroxytryptamine receptor 5A (Homo sapiens) (UniProt P47898); conditions: Compound concentration 10.0 uM
[13] = test system: eIF-2-alpha kinase GCN2 (Homo sapiens), Q9P2K8 [S808G]; conditions: Compound concentration 1000.0 nM
[14] = molecular target: Ephrin type-A receptor 6 (Homo sapiens) (UniProt Q9UF33); conditions: Compound concentration 1000.0 nM
[15] = molecular target: Serine/threonine-protein kinase N2 (Homo sapiens) (UniProt Q16513); conditions: Compound concentration 1000.0 nM
[16] = molecular target: Mitogen-activated protein kinase 4 (Homo sapiens) (UniProt P31152); conditions: Compound concentration 1000.0 nM
[17] = molecular target: Vascular endothelial growth factor receptor 3 (Homo sapiens) (UniProt P35916); conditions: Compound concentration 1000.0 nM
[18] = molecular target: Casein kinase I isoform gamma-3 (Homo sapiens) (UniProt Q9Y6M4); conditions: Compound concentration 1000.0 nM
[19] = molecular target: Insulin receptor-related protein (Homo sapiens) (UniProt P14616); conditions: Compound concentration 1000.0 nM
[20] = test system: Proto-oncogene tyrosine-protein kinase receptor Ret (Homo sapiens), P07949 [V804L]; conditions: Compound concentration 1000.0 nM
[21] = molecular target: NUAK family SNF1-like kinase 1 (Homo sapiens) (UniProt O60285); conditions: Compound concentration 1000.0 nM
[22] = molecular target: Cyclin-dependent kinase 9 (Homo sapiens) (UniProt P50750); conditions: Compound concentration 1000.0 nM
[23] = molecular target: Mitogen-activated protein kinase kinase kinase 10 (Homo sapiens) (UniProt Q02779); conditions: Compound concentration 1000.0 nM
[24] = molecular target: Phosphatidylinositol 3-kinase catalytic subunit type 3 (Homo sapiens) (UniProt Q8NEB9); conditions: Compound concentration 1000.0 nM
[25] = molecular target: Cyclin-dependent kinase 2 homolog (Plasmodium falciparum (isolate 3D7)) (UniProt P61075); conditions: Compound concentration 1000.0 nM
[26] = molecular target: Mitogen-activated protein kinase kinase kinase 11 (Homo sapiens) (UniProt Q16584); conditions: Compound concentration 1000.0 nM
[27] = molecular target: Ephrin type-A receptor 2 (Homo sapiens) (UniProt P29317); conditions: Compound concentration 1000.0 nM
[28] = molecular target: Serine/threonine-protein kinase haspin (Homo sapiens) (UniProt Q8TF76); conditions: Compound concentration 1000.0 nM
[29] = molecular target: Serine/threonine-protein kinase 32B (Homo sapiens) (UniProt Q9NY57); conditions: Compound concentration 1000.0 nM
[30] = molecular target: Calcium/calmodulin-dependent protein kinase type II subunit beta (Homo sapiens) (UniProt Q13554); conditions: Compound concentration 1000.0 nM
[31] = molecular target: Cyclin-dependent kinase 18 (Homo sapiens) (UniProt Q07002); conditions: Compound concentration 1000.0 nM
[32] = molecular target: cAMP-dependent protein kinase catalytic subunit PRKX (Homo sapiens) (UniProt P51817); conditions: Compound concentration 1000.0 nM
[33] = test system: Epidermal growth factor receptor (Homo sapiens), P00533 [G719C]; conditions: Compound concentration 1000.0 nM
[34] = molecular target: Tyrosine-protein kinase SYK (Homo sapiens) (UniProt P43405); conditions: Compound concentration 1000.0 nM
[35] = molecular target: Mitogen-activated protein kinase kinase kinase kinase 4 (Homo sapiens) (UniProt O95819); conditions: Compound concentration 1000.0 nM
[36] = molecular target: Dual specificity tyrosine-phosphorylation-regulated kinase 1A (Homo sapiens) (UniProt Q13627); conditions: Compound concentration 1000.0 nM
[37] = molecular target: Homeodomain-interacting protein kinase 3 (Homo sapiens) (UniProt Q9H422); conditions: Compound concentration 1000.0 nM
[38] = molecular target: Cyclin-dependent kinase-like 5 (Homo sapiens) (UniProt O76039); conditions: Compound concentration 1000.0 nM
[39] = molecular target: Ribosomal protein S6 kinase alpha-4 (Homo sapiens) (UniProt O75676); conditions: Compound concentration 1000.0 nM
[40] = test system: Mast/stem cell growth factor receptor Kit (Homo sapiens), P10721 [V559D,T670I]; conditions: Compound concentration 1000.0 nM
[41] = molecular target: Ribosomal protein S6 kinase alpha-6 (Homo sapiens) (UniProt Q9UK32); conditions: Compound concentration 1000.0 nM
[42] = molecular target: Serine/threonine-protein kinase PLK2 (Homo sapiens) (UniProt Q9NYY3); conditions: Compound concentration 1000.0 nM
[43] = molecular target: Tyrosine-protein kinase JAK2 (Homo sapiens) (UniProt O60674); conditions: Compound concentration 1000.0 nM
[44] = molecular target: Ribosomal protein S6 kinase alpha-6 (Homo sapiens) (UniProt Q9UK32); conditions: Compound concentration 1000.0 nM; remark: listed apart in the source
[45] = molecular target: 5-hydroxytryptamine receptor 1D (Homo sapiens) (UniProt P28221); conditions: Compound concentration 10.0 uM
Chain of 5-hydroxytryptamine receptor 1D (Homo sapiens) (P28221 whole entry): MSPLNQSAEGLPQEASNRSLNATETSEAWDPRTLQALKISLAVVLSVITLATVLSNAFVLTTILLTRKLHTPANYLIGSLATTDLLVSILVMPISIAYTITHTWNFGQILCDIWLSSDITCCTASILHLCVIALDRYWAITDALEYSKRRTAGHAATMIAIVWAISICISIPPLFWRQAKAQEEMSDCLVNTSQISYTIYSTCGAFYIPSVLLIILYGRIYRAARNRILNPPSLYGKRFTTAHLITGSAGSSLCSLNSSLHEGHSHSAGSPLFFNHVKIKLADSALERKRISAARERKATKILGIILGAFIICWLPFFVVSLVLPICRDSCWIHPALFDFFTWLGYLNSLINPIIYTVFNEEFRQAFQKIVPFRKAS

Chain of Ribosomal protein S6 kinase alpha-6 (Homo sapiens) (Q9UK32 whole entry): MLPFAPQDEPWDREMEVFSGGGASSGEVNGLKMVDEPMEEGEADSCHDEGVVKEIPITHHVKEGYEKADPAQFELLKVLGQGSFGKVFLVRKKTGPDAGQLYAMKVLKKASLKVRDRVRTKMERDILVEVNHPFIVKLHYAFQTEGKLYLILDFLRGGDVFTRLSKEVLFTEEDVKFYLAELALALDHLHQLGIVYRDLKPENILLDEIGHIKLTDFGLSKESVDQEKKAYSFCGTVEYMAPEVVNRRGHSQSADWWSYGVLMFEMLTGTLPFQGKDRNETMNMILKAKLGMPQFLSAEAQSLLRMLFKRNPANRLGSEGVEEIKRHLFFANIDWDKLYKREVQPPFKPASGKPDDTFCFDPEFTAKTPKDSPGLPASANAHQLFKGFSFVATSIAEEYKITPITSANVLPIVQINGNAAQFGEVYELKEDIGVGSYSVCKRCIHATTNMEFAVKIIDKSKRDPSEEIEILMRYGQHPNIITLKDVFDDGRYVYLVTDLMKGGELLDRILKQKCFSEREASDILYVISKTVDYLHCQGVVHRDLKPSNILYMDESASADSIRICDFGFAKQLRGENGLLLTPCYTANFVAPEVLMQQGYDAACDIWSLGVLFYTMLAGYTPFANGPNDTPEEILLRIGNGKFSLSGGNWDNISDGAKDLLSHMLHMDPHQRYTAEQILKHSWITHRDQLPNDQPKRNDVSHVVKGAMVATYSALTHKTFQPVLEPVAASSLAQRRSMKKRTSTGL
Chain of Tyrosine-protein kinase JAK2 (Homo sapiens) (O60674 whole entry): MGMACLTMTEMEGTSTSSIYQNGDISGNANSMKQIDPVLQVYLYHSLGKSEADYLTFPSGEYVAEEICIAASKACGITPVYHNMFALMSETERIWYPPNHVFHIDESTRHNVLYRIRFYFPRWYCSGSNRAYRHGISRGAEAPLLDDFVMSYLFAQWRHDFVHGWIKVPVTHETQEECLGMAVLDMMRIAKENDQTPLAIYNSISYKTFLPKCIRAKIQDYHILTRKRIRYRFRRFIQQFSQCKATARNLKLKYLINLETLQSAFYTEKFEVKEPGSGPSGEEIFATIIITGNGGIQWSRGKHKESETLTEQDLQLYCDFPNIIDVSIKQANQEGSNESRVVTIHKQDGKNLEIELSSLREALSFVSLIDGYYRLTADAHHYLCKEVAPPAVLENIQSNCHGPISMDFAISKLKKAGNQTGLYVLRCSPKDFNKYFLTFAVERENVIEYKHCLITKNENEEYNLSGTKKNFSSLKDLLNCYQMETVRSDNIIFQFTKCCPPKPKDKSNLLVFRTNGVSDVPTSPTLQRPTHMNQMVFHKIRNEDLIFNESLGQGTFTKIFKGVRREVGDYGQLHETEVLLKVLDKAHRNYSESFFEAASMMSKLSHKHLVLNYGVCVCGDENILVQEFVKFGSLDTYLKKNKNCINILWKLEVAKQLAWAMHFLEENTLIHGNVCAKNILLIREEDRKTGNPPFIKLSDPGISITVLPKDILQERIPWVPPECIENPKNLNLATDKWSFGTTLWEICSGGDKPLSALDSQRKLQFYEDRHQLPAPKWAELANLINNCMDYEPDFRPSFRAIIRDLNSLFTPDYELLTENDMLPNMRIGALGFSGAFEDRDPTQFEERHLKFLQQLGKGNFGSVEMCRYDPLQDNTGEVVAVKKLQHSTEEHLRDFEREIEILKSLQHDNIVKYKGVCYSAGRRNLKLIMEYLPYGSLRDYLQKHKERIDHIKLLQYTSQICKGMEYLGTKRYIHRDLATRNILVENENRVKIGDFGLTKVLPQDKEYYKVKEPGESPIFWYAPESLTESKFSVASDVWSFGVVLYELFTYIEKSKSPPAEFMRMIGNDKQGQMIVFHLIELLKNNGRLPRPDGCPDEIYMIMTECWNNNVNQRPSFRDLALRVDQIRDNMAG
Chain of Serine/threonine-protein kinase PLK2 (Homo sapiens) (Q9NYY3 whole entry, looked up): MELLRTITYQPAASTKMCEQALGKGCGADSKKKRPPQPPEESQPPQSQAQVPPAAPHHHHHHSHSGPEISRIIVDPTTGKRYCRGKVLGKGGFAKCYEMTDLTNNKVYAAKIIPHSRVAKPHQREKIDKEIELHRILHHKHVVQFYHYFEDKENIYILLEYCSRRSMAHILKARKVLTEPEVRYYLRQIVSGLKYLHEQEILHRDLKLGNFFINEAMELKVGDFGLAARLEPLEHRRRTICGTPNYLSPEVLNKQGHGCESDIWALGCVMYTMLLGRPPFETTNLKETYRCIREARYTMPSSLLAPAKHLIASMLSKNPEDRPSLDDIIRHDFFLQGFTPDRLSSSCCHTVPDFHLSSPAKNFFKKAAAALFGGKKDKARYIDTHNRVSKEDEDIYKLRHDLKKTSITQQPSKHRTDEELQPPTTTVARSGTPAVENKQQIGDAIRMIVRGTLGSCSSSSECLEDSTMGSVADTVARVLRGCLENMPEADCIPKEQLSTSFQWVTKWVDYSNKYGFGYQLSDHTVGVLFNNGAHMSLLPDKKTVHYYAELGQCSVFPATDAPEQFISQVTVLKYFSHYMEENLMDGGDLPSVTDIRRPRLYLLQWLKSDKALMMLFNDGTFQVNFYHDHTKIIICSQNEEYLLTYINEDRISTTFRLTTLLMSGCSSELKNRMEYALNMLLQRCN
Chain of Ephrin type-A receptor 2 (Homo sapiens) (P29317 whole entry): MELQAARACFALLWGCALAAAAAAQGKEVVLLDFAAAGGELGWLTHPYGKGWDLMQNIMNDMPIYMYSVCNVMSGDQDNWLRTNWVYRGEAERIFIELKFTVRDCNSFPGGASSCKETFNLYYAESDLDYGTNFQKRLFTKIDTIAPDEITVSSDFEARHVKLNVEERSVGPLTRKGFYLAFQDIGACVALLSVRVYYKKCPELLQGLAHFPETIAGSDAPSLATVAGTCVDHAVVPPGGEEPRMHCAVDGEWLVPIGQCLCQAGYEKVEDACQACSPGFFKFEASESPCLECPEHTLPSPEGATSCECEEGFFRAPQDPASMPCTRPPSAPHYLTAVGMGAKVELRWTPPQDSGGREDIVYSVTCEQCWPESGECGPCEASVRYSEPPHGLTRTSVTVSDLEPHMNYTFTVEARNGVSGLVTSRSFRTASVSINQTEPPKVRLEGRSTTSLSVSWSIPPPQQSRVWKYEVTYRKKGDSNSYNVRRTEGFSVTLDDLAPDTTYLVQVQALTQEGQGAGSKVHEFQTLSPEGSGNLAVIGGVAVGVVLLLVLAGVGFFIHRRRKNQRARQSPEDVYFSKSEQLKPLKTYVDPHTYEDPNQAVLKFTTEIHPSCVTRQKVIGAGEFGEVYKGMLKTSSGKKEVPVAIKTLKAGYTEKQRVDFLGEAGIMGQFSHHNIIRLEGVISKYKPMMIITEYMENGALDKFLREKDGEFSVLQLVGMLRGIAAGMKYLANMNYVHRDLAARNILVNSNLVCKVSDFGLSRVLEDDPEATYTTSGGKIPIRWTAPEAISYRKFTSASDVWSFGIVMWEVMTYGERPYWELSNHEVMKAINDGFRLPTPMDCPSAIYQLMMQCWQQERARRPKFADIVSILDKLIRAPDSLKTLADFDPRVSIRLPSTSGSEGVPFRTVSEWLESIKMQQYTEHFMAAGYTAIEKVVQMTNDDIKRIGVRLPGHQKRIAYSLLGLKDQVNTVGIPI
Chain of Serine/threonine-protein kinase haspin (Homo sapiens) (Q8TF76 whole entry): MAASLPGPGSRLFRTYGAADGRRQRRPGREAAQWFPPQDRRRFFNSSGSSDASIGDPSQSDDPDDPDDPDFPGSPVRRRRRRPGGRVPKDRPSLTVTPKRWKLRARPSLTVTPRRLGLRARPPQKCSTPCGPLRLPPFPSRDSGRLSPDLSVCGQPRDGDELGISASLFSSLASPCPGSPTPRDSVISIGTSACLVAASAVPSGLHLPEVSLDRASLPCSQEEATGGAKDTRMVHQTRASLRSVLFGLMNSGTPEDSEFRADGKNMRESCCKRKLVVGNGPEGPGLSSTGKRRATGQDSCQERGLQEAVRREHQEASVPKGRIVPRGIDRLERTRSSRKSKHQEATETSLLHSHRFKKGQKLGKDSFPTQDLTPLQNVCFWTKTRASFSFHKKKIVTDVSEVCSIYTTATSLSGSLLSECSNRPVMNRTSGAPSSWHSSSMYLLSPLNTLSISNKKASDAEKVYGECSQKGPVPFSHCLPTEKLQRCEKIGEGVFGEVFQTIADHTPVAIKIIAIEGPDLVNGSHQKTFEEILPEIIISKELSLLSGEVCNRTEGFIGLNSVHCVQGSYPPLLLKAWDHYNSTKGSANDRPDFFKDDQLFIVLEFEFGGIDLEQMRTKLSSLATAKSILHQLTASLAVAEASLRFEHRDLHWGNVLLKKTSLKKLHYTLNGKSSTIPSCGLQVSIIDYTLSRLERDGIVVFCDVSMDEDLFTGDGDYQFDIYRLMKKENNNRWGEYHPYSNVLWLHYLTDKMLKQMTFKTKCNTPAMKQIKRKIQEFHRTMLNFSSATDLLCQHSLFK
Chain of 5-hydroxytryptamine receptor 5A (Homo sapiens) (P47898 whole entry): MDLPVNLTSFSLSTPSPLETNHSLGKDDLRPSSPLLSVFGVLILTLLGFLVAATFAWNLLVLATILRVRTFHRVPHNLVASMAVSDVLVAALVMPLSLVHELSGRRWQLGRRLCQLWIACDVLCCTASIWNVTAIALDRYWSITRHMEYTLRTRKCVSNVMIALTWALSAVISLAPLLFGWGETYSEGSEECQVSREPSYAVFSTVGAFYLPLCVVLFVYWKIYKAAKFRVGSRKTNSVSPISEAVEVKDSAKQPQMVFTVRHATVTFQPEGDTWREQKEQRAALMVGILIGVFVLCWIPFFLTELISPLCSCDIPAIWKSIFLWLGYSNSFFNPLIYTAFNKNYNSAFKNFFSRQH

N#Cc1ccc(Nc2ccc3[nH]c(=O)[nH]c3c2)c(Cl)c1
inactive: residual activity [1] 87% | inhibition [2] 12.6% | residual activity [3] 100% | residual activity [4] 100% | residual activity [5] 67% | residual activity [6] 100% | residual activity [7] 100% | residual activity [8] 96% | residual activity [9] 100% | inhibition [10] 5.37% | residual activity [11] 93% | inhibition [12] -7.6% | residual activity [13] 93% | residual activity [14] 82% | residual activity [15] 76% | residual activity [16] 100% | residual activity [17] 100% | residual activity [18] 99% | residual activity [19] 100% | residual activity [20] 100% | residual activity [21] 100% | residual activity [22] 100% | residual activity [23] 99% | residual activity [24] 100% | residual activity [25] 100% | residual activity [26] 100% | residual activity [27] 84% | residual activity [28] 100% | residual activity [29] 92% | residual activity [30] 91% | residual activity [31] 100% | residual activity [32] 100% | residual activity [33] 100% | residual activity [34] 100% | residual activity [35] 77% | residual activity [36] 100% | residual activity [37] 94% | residual activity [38] 100% | residual activity [39] 95% | residual activity [40] 100% | residual activity [41] 100% | residual activity [42] 86% | residual activity [43] 100% | residual activity [44] 84% | inhibition [45] 3.68%

O=C1CCc2cc(Nc3cc(OC4CCOCC4)c([N+](=O)[O-])cc3Cl)ccc2N1
inactive: residual activity [1] 100% | inhibition [2] 12.6% | residual activity [3] 100% | residual activity [4] 100% | residual activity [5] 98% | residual activity [6] 96% | residual activity [7] 100% | residual activity [8] 92% | residual activity [9] 100% | inhibition [10] 3.21% | residual activity [11] 79% | inhibition [12] 6.14% | residual activity [13] 85% | residual activity [14] 80% | residual activity [15] 100% | residual activity [16] 100% | residual activity [17] 97% | residual activity [18] 67% | residual activity [19] 100% | residual activity [20] 91% | residual activity [21] 100% | residual activity [22] 97% | residual activity [23] 94% | residual activity [24] 100% | residual activity [25] 100% | residual activity [26] 100% | residual activity [27] 75% | residual activity [28] 100% | residual activity [29] 88% | residual activity [30] 90% | residual activity [31] 100% | residual activity [32] 100% | residual activity [33] 100% | residual activity [34] 100% | residual activity [35] 100% | residual activity [36] 80% | residual activity [37] 91% | residual activity [38] 99% | residual activity [39] 72% | residual activity [40] 94% | residual activity [41] 91% | residual activity [42] 92% | residual activity [43] 100% | residual activity [44] 77% | inhibition [45] 18.6%
